Assay results as given in patent US11103519B2, “Quinone-methide precursors with bodipy chromophore, method of preparation, biological activity and application in fluorescent labelling” (Rudjer Boskovic Institute, priority 2016, dated 2021).
Where two headings read alike, the source gives them in different places.

Key:
MCF-7 (breast carcinoma) = assay: Antiproliferative MTT assay, MCF-7; format: cell-based, human; details: 72 h incubation, read-out: IC50, the concentration that causes 50% growth inhibition
Excerpt: (§1) The absorbance is directly proportional to the cell viability.

[1] = test system: HCT 116 (colon carcinoma); details: read-out: IC50, the concentration that causes 50% growth inhibition, HCT116, 72 h incubation, MTT
Method: The described assay was used to test the effects of test compounds on the proliferation of various human tumor cell lines, whereby cytostatic and cytotoxic effects on cells can be differentiated. The experiments were carried out on human cell lines, which were derived from 3 tumor types: MCF-7 (breast carcinoma), HCT 116 (colon carcinoma), H 460 (lung carcinoma).
Cell lines were cultured as monolayers and maintained in Dulbecco's modified Eagle medium (DMEM), supplemented with 10% fetal bovine serum (FBS), 2 mM L-glutamine, 100 U/ml penicillin and 100 μg/ml streptomycin in a humidified atmosphere with 5% CO2 at 37° C.
The cell lines were inoculated onto a series of standard 96-well microtiter plates on day 0, at 1×10^4 to 3×10^4 cells/ml, depending on the doubling times of the specific cell line. Test compounds were added next day to the cell lines in five consecutive 10-fold dilutions (10^−8 to 10^−4 M) and incubated for a further 72 hours. Working dilutions were freshly prepared on the day of testing. The solvent (DMSO) was also tested for eventual inhibitory activity by adjusting its concentration to be the same as in working concentrations.
For each cell line one of the plates was left in the dark, while the other was irradiated in a Luzchem reactor (6 lamps 350 nm, 5 min; or 6 lamps 420 nm, 15 min, visible light, 15 min) four hours after the addition of the test compounds and subsequently 24 h and 48 h after the first irradiation, as described above. After 72 hours of incubation the cell growth rate was evaluated by performing the MTT assay (Mossman, Methods Immunol, 1983, 65, 55-63), which detects dehydrogenase activity in viable cells. The MTT Cell Proliferation Assay is a colorimetric assay system, which measures the reduction of a tetrazolium component (MTT) into an insoluble formazan produced by mitochondria of viable cells. For this purpose the substance treated medium was discarded and MTT was added to each well in concentration of 20 μg/40 μl. After four hours of incubation the precipitates were dissolved in 160 μl of dimethylsulphoxide (DMSO). The absorbance (OD, optical density) was measured on a microplate reader at 570 nm. The absorbance is directly proportional to the cell viability. The percentage of growth (PG) of the cell lines was calculated according to one of the following two equations (according to the National Cancer Institute protocols, www.dtp.nci.nih.gov):
If (mean ODtest-mean ODtzero)≥0 then • PG=100×(mean ODtest-mean ODtzero)/(mean ODetrl-meanODtzero).
If (mean ODtest-mean ODtzero)<0 then: • PG=100×(mean ODtest-mean ODtzero)/ODtzero. where:
Mean ODtzero=the average of optical density measurements before exposure of cells to the test compound.
Mean ODtest=the average of optical density measurements after the desired period of time.
Mean ODetrl=the average of optical density measurements after the desired period of time with no exposure of cells to the test compound.
Each test point was performed in quadruplicate in three individual experiments. The results were expressed as IC50, a concentration necessary for 50% of proliferation inhibition. Each result is a mean value from three separate experiments. The IC50 measures the growth inhibitory power of the test agent and represents the concentration that causes 50% growth inhibition. […] Therefore, a “real” value for any of the response parameters is obtained only if at least one of the tested drug concentrations falls above, and likewise at least one falls below the respective reference value. If however, for a given cell line or test agent all of the tested concentrations produce PGs exceeding the respective reference level of effect (e.g. PG value of 50%), then the highest tested concentration is assigned as the default value. In the screening data report the default value is preceded by a “>” sign.

H 460 (lung carcinoma) = assay: Antiproliferative MTT assay, H 460; format: cell-based, human; details: 72 h incubation, read-out: IC50, the concentration that causes 50% growth inhibition
Excerpt: as §1

Substance | IC50 (MCF-7 (breast carcinoma); Not irrad.) | IC50 (MCF-7 (breast carcinoma); irradiated 350 nm 3 × 5 min) | IC50 (MCF-7 (breast carcinoma); irradiated 420 nm 3 × 15 min) | IC50 (MCF-7 (breast carcinoma); irradiated VIS 3 × 15 min) | IC50 ([1]; Not irrad.) | IC50 ([1]; irradiated 350 nm 3 × 5 min) | IC50 ([1]; irradiated 420 nm 3 × 15 min) | IC50 ([1]; irradiated VIS 3 × 15 min) | IC50 (H 460 (lung carcinoma); Not irrad.) | IC50 (H 460 (lung carcinoma); irradiated 350 nm 3 × 5 min) | IC50 (H 460 (lung carcinoma); irradiated 420 nm 3 × 15 min) | IC50 (H 460 (lung carcinoma); irradiated VIS 3 × 15 min)
4,4-difluoro-1,3,5,7-tetramethyl-8-[3-(N,N-dimethylammoniummethyl)-4-hydroxyphenyl]-4-bora-3a,4a-diaza-s-indacene hydrochloride [Example 4] | 13 ± 0.1 µM | 10 ± 0.6 µM | 2 ± 0.2 µM | 1.6 ± 0.01 µM | 16 ± 1 µM | 11 ± 2 µM | 2 ± 0.4 µM | 2 ± 0.1 µM | 13 ± 0.2 µM | 5 ± 3 µM | 1 ± 0.1 µM | 0.9 ± 0.2 µM
4,4-difluoro-1,5,7-trimethyl-343-(N,N-dimethylammoniummethyl)-4-hydroxyphenyl)-8-phenyl-4-bora-3a,4a-diaza-s-indacene hydrochloride [Example 7] | 22 ± 12 µM |  |  | 2 ± 0.7 µM | 27 µM |  |  | 2 µM | 20 ± 5 µM |  |  | 2 ± 0.7 µM
4,4-difluoro-8-[3-(N,N-dimethylammoniummethyl)-4-hydroxyphenyl]-4-bora-3a,4a-diaza-s-indacene hydrochloride [Example 2] | ≥ 100 µM | ≥ 100 µM | 25 ± 6 µM | 32 ± 25 µM | > 100 µM | > 100 µM | 37 ± 7 µM | 89 ± 6 µM | > 100 µM | > 100 µM | 30 ± 18 µM | 43 ± 6 µM
